The text below walks through data of patent US10471046B2, “Method for treating, preventing, or reducing the risk of skin infection” (Melinta Subsidiary Corp., priority 2014, dated 2019).

In brackets after ≈: the same amount, converted by molar mass.

The subject of this test is S. aureus. The test can be described thus: Minimum inhibitory concentrations (MICs) for S. aureus of exemplary compounds (Table 2). The test is classed as cell-based. The note with it: Staphylococcus aureus, minimum inhibitory concentrations for S. aureus; read-out: MICs. Put shortly: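 Growth of S. aureus in media with or without compound, by broth microdilution in microtiter trays following NCCLS M7-A5 guidelines. Values are MICs in μg/mL.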

Turning to `CC(=O)NC[C@H]1CN(c2ccc(-c3ccc(CSc4nc(C)cs4)cc3)c(F)c2)C(=O)O1` [Compound 2031, N-{3-[2-Fluoro-4′-(4-methyl-thiazol-2-ylsulfanylmethyl)-biphenyl-4-yl]-2-oxo-oxazolidin-5-(S)-ylmethyl}-acetamide], the MIC was found to be 1 µg/mL (≈ 2.12 µM).
To `CC(=O)NC[C@H]1CN(c2ccc(-c3ccc(CSc4ncc[nH]4)cc3)c(F)c2)C(=O)O1` [Compound 2032, N-{3-[2-Fluoro-4′-(1H-imidazol-2-ylsulfanylmethyl)-biphenyl-4-yl]-2-oxo-oxazolidin-5-(S)-ylmethyl}-acetamide] belongs 1 µg/mL (≈ 2.27 µM); to `CC(=O)NC[C@H]1CN(c2ccc(-c3ccc(CSc4ncnn4C)cc3)c(F)c2)C(=O)O1` [Compound 2033, N-{3-[2-Fluoro-4′-(2-methyl-2H-[1,2,4]triazol-3-ylsulfanylmethyl)-biphenyl-4-yl]-2-oxo-oxazolidin-5-(S)-ylmethyl}-acetamide], 1 µg/mL (≈ 2.2 µM); to `CC(=O)NC[C@H]1CN(c2ccc(-c3ccc(C[S+]([O-])c4nncs4)cc3)c(F)c2)C(=O)O1` (stereo partly drawn) [Compound 2035, N-{3-[2-Fluoro-4′-([1,3,4]thiadiazole-2-sulfinylmethyl)-biphenyl-4-yl]-2-oxo-oxazolidin-5-(S)-ylmethyl}-acetamide], 1 µg/mL (≈ 2.11 µM).
Regarding `CC(=O)NC[C@H]1CN(c2ccc(-c3ccc(C[S+]([O-])c4nccs4)cc3)c(F)c2)C(=O)O1` (stereo partly drawn) [Compound 2036, N-{3-[2-Fluoro-4′-(thiazole-2-sulfinylmethyl)-biphenyl-4-yl]-2-oxo-oxazolidin-5-(S)-ylmethyl}-acetamide], the MIC was determined as 1 µg/mL (≈ 2.11 µM).
To `CC(=O)NC[C@H]1CN(c2ccc(-c3ccc(C[S+]([O-])c4nc(C)cs4)cc3)c(F)c2)C(=O)O1` (stereo partly drawn) [Compound 2037, N-{3-[2-Fluoro-4′-(4-methyl-thiazole-2-sulfinylmethyl)-biphenyl-4-yl]-2-oxo-oxazolidin-5-(S)-ylmethyl}-acetamide] belongs 1 µg/mL (≈ 2.05 µM); to `CC(=O)NC[C@H]1CN(c2ccc(-c3ccc(C[S+]([O-])c4ncc[nH]4)cc3)c(F)c2)C(=O)O1` (stereo partly drawn) [Compound 2038, N-{3-[2-Fluoro-4′-(1H-imidazole-2-sulfinylmethyl)-biphenyl-4-yl]-2-oxo-oxazolidin-5-(S)-ylmethyl}-acetamide], 2 µg/mL (≈ 4.38 µM).
To `CC(=O)NC[C@H]1CN(c2ccc(-c3ccc(C[S+]([O-])c4ncnn4C)cc3)c(F)c2)C(=O)O1` (stereo partly drawn) [Compound 2039, N-{3-[2-Fluoro-4′-(2-methyl-2H-[1,2,4]triazole-3-sulfinylmethyl)-biphenyl-4-yl]-2-oxo-oxazolidin-5-(S)-ylmethyl}-acetamide] belongs 2 µg/mL (≈ 4.24 µM); to `CC(=O)NC[C@H]1CN(c2ccc(-c3ccc(CSc4cnn[nH]4)nc3)c(F)c2)C(=O)O1` [Compound 2040, N-(3-{3-Fluoro-4-[6-(3H-[1,2,3]triazol-4-ylsulfanylmethyl)-pyridin-3-yl]-phenyl}-2-oxo-oxazolidin-5-(S)-ylmethyl)-acetamide], 0.25 µg/mL (≈ 0.565 µM).
To `CC(=O)NC[C@H]1CN(c2ccc(-c3ccc(/C=N/Nc4ccccn4)cc3)c(F)c2)C(=O)O1` [Compound 2041, N-{3-[2-Fluoro-4′-(pyridin-2-yl-hydrazonomethyl)-biphenyl-4-yl]-2-oxo-oxazolidin-5-(S)-ylmethyl}-acetamide] belongs 1 µg/mL (≈ 2.23 µM); to `CC(=O)NC[C@H]1CN(c2ccc(-c3ccc(/C=N/Nc4nccc(C(F)(F)F)n4)cc3)c(F)c2)C(=O)O1` [Compound 2042, N-(3-{2-Fluoro-4′-[(4-trifluoromethyl-pyrimidin-2-yl)-hydrazonomethyl]-biphenyl-4-yl}-2-oxo-oxazolidin-5-(S)-ylmethyl)-acetamide], 128 µg/mL (≈ 248 µM).
Turning to `CC(=O)NC[C@H]1CN(c2ccc(-c3ccc(CNS(=O)(=O)c4cn(C)cn4)cc3)c(F)c2)C(=O)O1` [Compound 2043, N-(3-{2-Fluoro-4′-[(1-methyl-1H-imidazole-4-sulfonylamino)-methyl]-biphenyl-4-yl}-2-oxo-oxazolidin-5-(S)-ylmethyl)-acetamide], the MIC turned out to be 2 µg/mL (≈ 3.99 µM).
To `CC(=O)NC[C@H]1CN(c2ccc(-c3ccc(CNS(=O)(=O)c4ccc(N5CCOCC5)nc4)cc3)c(F)c2)C(=O)O1` [Compound 2044, N-(3-{2-Fluoro-4′-[(6-morpholin-4-yl-pyridine-3-sulfonylamino)-methyl]-biphenyl-4-yl}-2-oxo-oxazolidin-5-(S)-ylmethyl)-acetamide] belongs 128 µg/mL (≈ 219 µM).
Under `CC(=O)NC[C@H]1CN(c2ccc(-c3ccc(CS(=O)(=O)Nc4cccnc4)cc3)c(F)c2)C(=O)O1` [Compound 2045, N-{3-[2-Fluoro-4′-(pyridin-3-ylsulfamoylmethyl)-biphenyl-4-yl]-2-oxo-oxazolidin-5-(S)-ylmethyl}-acetamide] stands 2 µg/mL (≈ 4.01 µM).
On to `CC(=O)NC[C@H]1CN(c2ccc(-c3ccc(CNn4cnnc4)cc3)c(F)c2)C(=O)O1` [Compound 2046, N-{3-[2-Fluoro-4′-([1,2,4]triazol-4-ylaminomethyl)-biphenyl-4-yl]-2-oxo-oxazolidin-5-(S)-ylmethyl}-acetamide], for which the MIC was determined as 1 µg/mL (≈ 2.36 µM).
With `CC(=O)NC[C@H]1CN(c2ccc(-c3ccc(CSc4ncn[nH]4)cc3)c(F)c2)C(=O)O1` [Compound 2047, N-{3-[2-Fluoro-4′-(2H-[1,2,4]triazol-3-ylsulfanylmethyl)-biphenyl-4-yl]-2-oxo-oxazolidin-5-(S)-ylmethyl}-acetamide], the MIC is 0.25 µg/mL (≈ 0.566 µM).
`CC(=O)NC[C@H]1CN(c2ccc(-c3ccc(CNNc4ccccn4)cc3)c(F)c2)C(=O)O1` [Compound 2048, N-{3-[2-Fluoro-4′-(N′-pyridin-2-yl-hydrazinomethyl)-biphenyl-4-yl]-2-oxo-oxazolidin-5-(S)-ylmethyl}-acetamide]: the MIC turned out to be 0.5 µg/mL (≈ 1.11 µM).
Under `CC(=O)NC[C@H]1CN(c2ccc(-c3ccc(CNNC4=NCCN4)cc3)c(F)c2)C(=O)O1` [Compound 2049, N-(3-{4′-[N′-(4,5-Dihydro-1H-imidazol-2-yl)-hydrazinomethyl]-2-fluoro-biphenyl-4-yl}-2-oxo-oxazolidin-5-(S)-ylmethyl)-acetamide] stands 2 µg/mL (≈ 4.54 µM); under `CC(=O)NC[C@H]1CN(c2ccc(-c3ccc(CNc4ccon4)cc3)c(F)c2)C(=O)O1` [Compound 2050, N-{3-[2-Fluoro-4′-(isoxazol-3-ylaminomethyl)-biphenyl-4-yl]-2-oxo-oxazolidin-5-(S)-ylmethyl}-acetamide], 0.25 µg/mL (≈ 0.589 µM); under `CC(=O)NC[C@H]1CN(c2ccc(-c3ccc(CNS(=O)(=O)c4cccc5cccnc45)cc3)c(F)c2)C(=O)O1` [Compound 2051, N-(3-{2-Fluoro-4′-[(quinoline-8-sulfonylamino)-methyl]-biphenyl-4-yl}-2-oxo-oxazolidin-5-(S)-ylmethyl)-acetamide], 4 µg/mL (≈ 7.29 µM).
To `CC(=O)NC[C@H]1CN(c2ccc(-c3ccc(CNc4nc[nH]c4C(N)=O)cc3)c(F)c2)C(=O)O1` [Compound 2055, 5-({4′-[5-(S)-(Acetylamino-methyl)-2-oxo-oxazolidin-3-yl]-2′-fluoro-biphenyl-4-ylmethyl}-amino)-3H-imidazole-4-carboxylic acid amide] belongs 4 µg/mL (≈ 8.57 µM); to `CC(=O)NC[C@H]1CN(c2ccc(-c3ccc(/C=N/N4CCOCC4)cc3)c(F)c2)C(=O)O1` [Compound 2056, N-{3-[2-Fluoro-4′-(morpholin-4-yliminomethyl)-biphenyl-4-yl]-2-oxo-oxazolidin-5-(S)-ylmethyl}-acetamide], 0.25 µg/mL (≈ 0.568 µM); to `CC(=O)NC[C@H]1CN(c2ccc(-c3ccc(CNN4CCN(C)CC4)cc3)c(F)c2)C(=O)O1` [Compound 2057, N-(3-{2-Fluoro-4′-[(4-methyl-piperazin-1-ylamino)-methyl]-biphenyl-4-yl}-2-oxo-oxazolidin-5-(S)-ylmethyl)-acetamide], 1 µg/mL (≈ 2.2 µM).
Under `CC(=O)NC[C@H]1CN(c2ccc(-c3ccc(CNS(=O)(=O)c4ccc(C(F)(F)F)cc4)cc3)c(F)c2)C(=O)O1` [Compound 2058, N-(3-{2-Fluoro-4′-[(4-trifluoromethyl-benzenesulfonylamino)-methyl]-biphenyl-4-yl}-2-oxo-oxazolidin-5-(S)-ylmethyl)-acetamide] stands 32 µg/mL (≈ 56.6 µM); under `CC(=O)NC[C@H]1CN(c2ccc(-c3ccc(CN[C@H]4CCCNC4=O)cc3)c(F)c2)C(=O)O1` [Compound 2059, N-(3-{2-Fluoro-4′-[(2-oxo-piperidin-3-(S)-ylamino)-methyl]-biphenyl-4-yl}-2-oxo-oxazolidin-5-(S)-ylmethyl)-acetamide], 2 µg/mL (≈ 4.4 µM).
Take `CC(=O)NC[C@H]1CN(c2ccc(-c3ccc(SCc4ccncc4)cc3)c(F)c2)C(=O)O1` [Compound 3001, N-{3-[2-Fluoro-4′-(pyridin-4-ylmethylsulfanyl)-biphenyl-4-yl]-2-oxo-oxazolidin-5-(S)-ylmethyl}-acetamide]: the MIC was found to be 1 µg/mL (≈ 2.21 µM).
Consider `CC(=O)NC[C@H]1CN(c2ccc(-c3ccc([S+]([O-])Cc4ccncc4)cc3)c(F)c2)C(=O)O1` (stereo partly drawn) [Compound 3002, N-{3-[2-Fluoro-4′-(pyridin-4-ylmethanesulfinyl)-biphenyl-4-yl]-2-oxo-oxazolidin-5-(S)-ylmethyl}-acetamide], for which the MIC turned out to be 1 µg/mL (≈ 2.14 µM).
To `CC(=O)NC[C@H]1CN(c2ccc(-c3ccc(S(=O)(=O)Cc4ccncc4)cc3)c(F)c2)C(=O)O1` [Compound 3003, N-{3-[2-Fluoro-4′-(pyridin-4-ylmethanesulfonyl)-biphenyl-4-yl]-2-oxo-oxazolidin-5-(S)-ylmethyl}-acetamide] belongs 2 µg/mL (≈ 4.14 µM); to `CC(=O)NC[C@H]1CN(c2ccc(-c3ccc(S(=O)(=O)Cc4cc[n+]([O-])cc4)cc3)c(F)c2)C(=O)O1` [Compound 3004, N-{3-[2-Fluoro-4′-(1-oxy-pyridin-4-ylmethanesulfonyl)-biphenyl-4-yl]-2-oxo-oxazolidin-5-(S)-ylmethyl}-acetamide], 4 µg/mL (≈ 8.01 µM).
Under `CC(=O)NC[C@H]1CN(c2ccc(-c3ccc(S(=O)(=O)NCc4ccncc4)cc3)c(F)c2)C(=O)O1` [Compound 3005, N-(3-{2-Fluoro-4′-[(pyridin-4-ylmethyl)-sulfamoyl]-biphenyl-4-yl}-2-oxo-oxazolidin-5-(S)-ylmethyl)-acetamide] stands 2 µg/mL (≈ 4.01 µM).
